Counter-ions that a name gives are not always drawn.
Molecular target: T1, recombinant guanylate cyclase reporter cell line (Rattus norvegicus, UniProt P19686+P20595)
T1 construct: expressed in transfected cells; host or cells: recombinant reporter cell line
T1 sequence (P19686 1-690): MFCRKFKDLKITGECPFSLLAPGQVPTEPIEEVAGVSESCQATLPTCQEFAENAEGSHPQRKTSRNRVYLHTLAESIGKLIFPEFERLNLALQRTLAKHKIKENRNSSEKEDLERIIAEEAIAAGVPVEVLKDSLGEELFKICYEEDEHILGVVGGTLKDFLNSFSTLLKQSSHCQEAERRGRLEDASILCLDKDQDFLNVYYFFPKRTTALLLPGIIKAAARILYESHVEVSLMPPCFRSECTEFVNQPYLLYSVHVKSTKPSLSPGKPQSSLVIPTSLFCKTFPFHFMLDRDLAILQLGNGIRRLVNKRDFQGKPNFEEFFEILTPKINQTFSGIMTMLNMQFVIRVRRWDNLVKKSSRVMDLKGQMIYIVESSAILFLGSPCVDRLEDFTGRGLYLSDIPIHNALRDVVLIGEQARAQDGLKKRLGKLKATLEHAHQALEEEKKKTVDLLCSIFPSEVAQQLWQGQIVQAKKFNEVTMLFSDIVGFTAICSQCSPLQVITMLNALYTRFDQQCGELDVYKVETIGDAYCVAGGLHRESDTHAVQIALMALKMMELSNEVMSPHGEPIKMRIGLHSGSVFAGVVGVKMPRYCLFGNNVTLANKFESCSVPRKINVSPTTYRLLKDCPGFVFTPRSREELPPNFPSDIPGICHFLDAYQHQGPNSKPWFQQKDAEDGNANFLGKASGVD
T1 sequence (P20595 1-619): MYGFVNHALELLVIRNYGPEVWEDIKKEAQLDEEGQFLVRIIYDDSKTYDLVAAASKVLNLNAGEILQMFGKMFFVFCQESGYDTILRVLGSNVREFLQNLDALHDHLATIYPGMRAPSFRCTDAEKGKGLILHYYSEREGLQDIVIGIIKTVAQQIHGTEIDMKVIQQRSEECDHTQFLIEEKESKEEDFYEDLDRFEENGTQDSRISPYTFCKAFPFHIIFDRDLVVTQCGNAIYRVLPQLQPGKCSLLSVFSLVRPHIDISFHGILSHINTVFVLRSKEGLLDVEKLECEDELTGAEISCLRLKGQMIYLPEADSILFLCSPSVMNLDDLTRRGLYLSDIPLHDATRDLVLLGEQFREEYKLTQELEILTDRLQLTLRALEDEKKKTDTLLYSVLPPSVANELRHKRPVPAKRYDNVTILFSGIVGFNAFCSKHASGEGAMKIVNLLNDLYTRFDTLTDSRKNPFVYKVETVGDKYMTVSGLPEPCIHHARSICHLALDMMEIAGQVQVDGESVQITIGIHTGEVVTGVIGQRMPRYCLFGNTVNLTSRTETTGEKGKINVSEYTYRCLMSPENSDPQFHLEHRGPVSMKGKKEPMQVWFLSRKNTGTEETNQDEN
Test: Action on recombinant guanylate cyclase reporter cell line
Format: cell-based
Conditions: in some cases mean values from individual determinations
Method in brief: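 MEC values, meaning the lowest concentration producing a detectable response, were taken from a recombinant cyclase reporter cell assay. Where repeated, individual determinations were averaged.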

| MEC (minimal effective concentration) | SMILES |
| --- | --- |
| 1.00 µM | Cc1nc2c(OCc3c(F)cccc3F)cc(Cl)cn2c1C(=O)NCC(N)C(C)C (single isomer, unassigned) [Example 212, ent-N-(2-Amino-3-methylbutyl)-6-chloro-8-[(2,6-difluorobenzyl)oxy]-2-methylimidazo[1,2-a]-pyridine-3-carboxamide] |
| 0.30 µM | COCC(C)(N)CNC(=O)c1c(C)nc2c(OCc3c(F)cccc3F)cccn12 (single isomer, unassigned) [Example 214, ent-N-(2-Amino-3-methoxy-2-methylpropyl)-8-[(2,6-difluorobenzyl)oxy]-2-methylimidazo[1,2-a]-pyridine-3-carboxamide] |
| 1.00 µM | COCC(C)(N)CNC(=O)c1c(C)nc2c(OCc3c(F)cccc3F)cccn12 (single isomer, unassigned) [Example 215, ent-N-(2-Amino-3-methoxy-2-methylpropyl)-8-[(2,6-difluorobenzyl)oxy]-2-methylimidazo[1,2-a]-pyridine-3-carboxamide] |
| 0.30 µM | Cc1cc(OCc2c(F)cccc2F)c2nc(C)c(C(=O)NCC(C)(N)CC(C)C)n2c1 (single isomer, unassigned) [Example 219, ent-N-(2-Amino-2,4-dimethylpentyl)-8-[(2,6-difluorobenzyl)oxy]-2,6-dimethylimidazo[1,2-a]-pyridine-3-carboxamide] |
| 0.10 µM | Cc1cc(OCc2c(F)cccc2F)c2nc(C)c(C(=O)NCC(C)(N)CC(C)C)n2c1 (single isomer, unassigned) [Example 220, ent-N-(2-Amino-2,4-dimethylpentyl)-8-[(2,6-difluorobenzyl)oxy]-2,6-dimethylimidazo[1,2-a]-pyridine-3-carboxamide] |
| 0.30 µM | Cc1cc(OCc2c(F)cccc2F)c2nc(C)c(C(=O)NCC(N)C(C)C)n2c1 (single isomer, unassigned) [Example 224, ent-N-(2-Amino-3-methylbutyl)-8-[(2,6-difluorobenzyl)oxy]-2,6-dimethylimidazo[1,2-a]pyridine-3-carboxamide] |
| 0.10 µM | Cc1nc2c(OCc3c(F)cccc3F)cc(Cl)cn2c1C(=O)NCC(C)(N)CC(C)C (single isomer, unassigned) [Example 226, ent-N-(2-Amino-2,4-dimethylpentyl)-6-chloro-8-[(2,6-difluorobenzyl)oxy]-2-methylimidazo[1,2-a]pyridine-3-carboxamide] |
| 0.30 µM | Cc1nc2c(OCc3c(F)cccc3F)cc(Cl)cn2c1C(=O)NCC(C)(N)CC(C)C (single isomer, unassigned) [Example 227, ent-N-(2-Amino-2,4-dimethylpentyl)-6-chloro-8-[(2,6-difluorobenzyl)oxy]-2-methylimidazo[1,2-a]pyridine-3-carboxamide] |

Second part, the compound before the results:

| SMILES | MEC (minimal effective concentration) |
| --- | --- |
| Cc1nc2c(OCc3c(F)cccc3F)cccn2c1C(=O)NC12CNCCC1C2 (single isomer, unassigned) [Example 184, ent-N-(3-Azabicyclo[4.1.0]hept-1-yl)-8-[(2,6-difluorobenzyl)oxy]-2-methylimidazo[1,2-a]pyridine-3-carboxamide] | 1.00 µM |
| Cc1nc2c(OCc3c(F)cccc3F)cccn2c1C(=O)NC12CNCCC1C2 (single isomer, unassigned) [Example 185, ent-N-(3-Azabicyclo[4.1.0]hept-1-yl)-8-[(2,6-difluorobenzyl)oxy]-2-methylimidazo[1,2-a]pyridine-3-carboxamide] | 1.00 µM |
| Cc1nc2c(OCc3c(F)cccc3F)cc(Cl)cn2c1C(=O)NCC(N)CC(F)(F)F (single isomer, unassigned) [Example 192, ent-N-(2-Amino-4,4,4-trifluorobutyl)-6-chloro-8-[(2,6-difluorobenzyl)oxy]-2-methylimidazo[1,2-a]pyridine-3-carboxamide] | 0.30 µM |
| Cc1nc2c(OCc3c(F)cccc3F)cc(Cl)cn2c1C(=O)NCC(N)CC(F)(F)F (single isomer, unassigned) [Example 193, ent-N-(2-Amino-4,4,4-trifluorobutyl)-6-chloro-8-[(2,6-difluorobenzyl)oxy]-2-methylimidazo[1,2-a]pyridine-3-carboxamide] | 1.00 µM |
| CCC(C)(N)CNC(=O)c1c(C)nc2c(OCc3c(F)cccc3F)cc(Cl)cn12 (single isomer, unassigned) [Example 195, ent-N-(2-Amino-2-methylbutyl)-6-chloro-8-[(2,6-difluorobenzyl)oxy]-2-methylimidazo[1,2-a]-pyridine-3-carboxamide] | 0.30 µM |
| COCC(C)(N)CNC(=O)c1c(C)nc2c(OCc3c(F)cccc3F)cc(Cl)cn12 (single isomer, unassigned) [Example 196, ent-N-(2-Amino-3-methoxy-2-methylpropyl)-6-chloro-8-[(2,6-difluorobenzyl)oxy]-2-methylimidazo[1,2-a]pyridine-3-carboxamide] | 1.00 µM |
| COCC(C)(N)CNC(=O)c1c(C)nc2c(OCc3c(F)cccc3F)cc(Cl)cn12 (single isomer, unassigned) [Example 197, ent-N-(2-Amino-3-methoxy-2-methylpropyl)-6-chloro-8-[(2,6-difluorobenzyl)oxy]-2-methylimidazo[1,2-a]pyridine-3-carboxamide] | 1.00 µM |
| COCC(C)(N)CNC(=O)c1c(C)nc2c(OCc3c(F)cccc3F)cc(C)cn12 (single isomer, unassigned) [Example 198, ent-N-(2-Amino-3-methoxy-2-methylpropyl)-8-[(2,6-difluorobenzyl)oxy]-2,6-dimethylimidazo-[1,2-a]pyridine-3-carboxamide] | 0.30 µM |
| COCC(C)(N)CNC(=O)c1c(C)nc2c(OCc3c(F)cccc3F)cc(C)cn12 (single isomer, unassigned) [Example 199, ent-N-(2-Amino-3-methoxy-2-methylpropyl)-8-[(2,6-difluorobenzyl)oxy]-2,6-dimethylimidazo-[1,2-a]pyridine-3-carboxamide] | 0.30 µM |
| CC[C@](C)(N)CNC(=O)c1c(C)nc2c(OCc3c(F)cccc3F)cc(C)cn12 (single isomer, unassigned) [Example 200] | 0.04 µM |
| Cc1nc2c(OCc3c(F)cccc3F)cccn2c1C(=O)NCC(C)(N)CC(C)C (single isomer, unassigned) [Example 203, ent-N-(2-Amino-2,4-dimethylpentyl)-8-[(2,6-difluorobenzyl)oxy]-2-methylimidazo[1,2-a]pyridine-3-carboxamide] | 0.10 µM |
| Cc1nc2c(OCc3c(F)cccc3F)cccn2c1C(=O)NCC(C)(N)CC(C)C (single isomer, unassigned) [Example 204, ent-N-(2-Amino-2,4-dimethylpentyl)-8-[(2,6-difluorobenzyl)oxy]-2-methylimidazo[1,2-a]pyridine-3-carboxamide] | 1.00 µM |
| Cc1nc2c(OCc3c(F)cccc3F)cccn2c1C(=O)NCC(N)C(F)(F)F (single isomer, unassigned) [Example 208, ent-N-(2-Amino-3,3,3-trifluoropropyl)-8-[(2,6-difluorobenzyl)oxy]-2-methylimidazo[1,2-a]-pyridine-3-carboxamide] | 0.30 µM |
| Cc1nc2c(OCc3c(F)cccc3F)cccn2c1C(=O)NCC(N)C(F)(F)F (single isomer, unassigned) [Example 209, ent-N-(2-Amino-3,3,3-trifluoropropyl)-8-[(2,6-difluorobenzyl)oxy]-2-methylimidazo[1,2-a]-pyridine-3-carboxamide] | 0.30 µM |
| COCC(CN)NC(=O)c1c(C)nc2c(OCc3c(F)cccc3F)cc(C)cn12 (single isomer, unassigned) [Example 210, ent-N-(1-amino-3-methoxypropan-2-yl)-8-[(2,6-difluorobenzyl)oxy]-2,6-dimethylimidazo[1,2-a]-pyridine-3-carboxamide trifluoroacetate] | 0.30 µM |
